# Assays:
# [1] = molecular target: T1, scavenger receptor B1 (SR-B1) (Mus musculus, UniProt Q61009); test: SR-B1 inhibitors in RGSKI mice: survival of transfused human RBCs in peripheral blood; assay type: in vivo; details: 2 mg per mouse, one hour before human RBC infusion
# T1 construct: endogenous in cells
# T1 sequence (Q61009 1-509): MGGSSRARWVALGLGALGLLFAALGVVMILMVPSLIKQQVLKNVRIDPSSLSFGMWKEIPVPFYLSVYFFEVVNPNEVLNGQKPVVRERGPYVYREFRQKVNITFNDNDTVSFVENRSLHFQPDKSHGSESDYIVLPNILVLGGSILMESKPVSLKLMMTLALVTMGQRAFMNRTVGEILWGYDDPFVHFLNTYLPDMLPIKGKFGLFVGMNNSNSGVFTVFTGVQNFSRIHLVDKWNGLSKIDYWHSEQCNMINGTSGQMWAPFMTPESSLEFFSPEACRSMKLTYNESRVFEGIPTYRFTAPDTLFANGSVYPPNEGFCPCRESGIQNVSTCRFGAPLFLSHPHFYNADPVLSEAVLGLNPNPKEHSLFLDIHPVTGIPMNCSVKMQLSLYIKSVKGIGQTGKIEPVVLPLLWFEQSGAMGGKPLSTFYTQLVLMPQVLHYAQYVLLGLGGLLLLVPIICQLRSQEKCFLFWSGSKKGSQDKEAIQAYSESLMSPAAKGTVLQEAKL
# Experimental: Inhibitor of scavenger receptor B1 can protect human RBCs in the mouse system. RGSKI mice were treated with scavenger receptor B1 named BLT-1 (2 mg per mouse). One hour after treatment, mice were infused with human RBCs and peripheral blood was collected at indicated time points. Control: PBS.
# Inhibitor of scavenger receptor B1 can protect human RBCs in the mouse system. RGSKI mice were treated with scavenger receptor B1 named ITX7650 or ITX5061 (1 mg per mouse) obtained from iTherX. One hour after treatment, mice were infused with human RBCs and peripheral blood was collected at indicated time points. Control: PBS.
# Fah-KO mouse hepatocytes = test: NTBC rescue of Fah-KO mouse hepatocytes; assay type: in vivo; details: NTBC in drinking water
# Excerpt: MISTRGFah are viable, fertile, and can be bred as homozygotes when maintained on drinking water supplemented with 2-(2-nitro-4-trifluoromethylbenzoyl)-1,3-cyclohexanedione (NTBC), that blocks tyrosine metabolism upstream of FAH and prevents buildup of hepatotoxic metabolites. At 8 weeks of age, MISTRGFah. mice were implanted with commercially available, adult human hepatocytes (HuHep) via direct injection into the splenic vein, followed by gradual withdrawal of NTBC water. Regulated buildup of intracellular FA results in death of murine Fah^−/− hepatocytes and regeneration with HuHep with up to 90% repopulation by HuHep (Azuma H et al., 2007, Nature Biotechnology, 25:903-910). When plasma human albumin levels reached 2 mg/dL (FIG. 11A), indicative of significant (˜80%) HuHep repopulation, HuHepMISTRGFah mice were sublethally (80cGy) irradiated and each mouse was engrafted with […] fetal liver (FL) derived CD34+ cells. MISTRG (80cGy), MISTRGW41 and NSGW41 (no irrad) served as controls to assess the effects of human liver vs W41 mutation vs cytokine humanization on erythropoiesis and huRBC in circulation. 10 weeks post transplantation mice were analyzed for engraftment and. specifically erythroid maturation and PB huRBC.
# C3 and C5 complement = details: cited from earlier work
molecule,measurement,setting,value
CCCCCCC1CCCC1=NNC(N)=S (centres unmarked) [BLT-1],Protection of transfused human red blood cells in mouse periphery,[1],protected
"O=C1CCCC(=O)C1C(=O)c1ccc(C(F)(F)F)cc1[N+](=O)[O-] [NTBC, 2-(2-nitro-4-trifluoromethylbenzoyl)-1,3-cyclohexanedione]",Rescue of Fah-KO mouse hepatocytes,Fah-KO mouse hepatocytes,rescues the Fah-KO mouse hepatocytes from death
cobra venom factor,Maximum human RBC chimerism,C3 and C5 complement; CVF with concurrent liposomal clodronate,~3%
same,% of circulating huRBC,C3 and C5 complement; only in conjunction with liposomal clodronate in NOD/SCID mice,increased the % of circulating huRBC
same,huRBC survival,C3 and C5 complement; only when MΦs are depleted concurrently with liposomal clodronate,significantly prolonged

# — patent US20220354098A1, “Genetically Modified Non-Human Animals and Methods of Use Thereof” (YALE UNIVERSITY, priority 2019, published 2022)
